≈ marks a conversion by molar mass, not a printed value. Calls of active or inactive are those of the source. No cut-off for these calls is given here.
Key:
[1] = molecular target: T1, Cytochrome P450 11B2, mitochondrial (Homo sapiens, UniProt P19099)
T1 sequence (P19099 whole entry): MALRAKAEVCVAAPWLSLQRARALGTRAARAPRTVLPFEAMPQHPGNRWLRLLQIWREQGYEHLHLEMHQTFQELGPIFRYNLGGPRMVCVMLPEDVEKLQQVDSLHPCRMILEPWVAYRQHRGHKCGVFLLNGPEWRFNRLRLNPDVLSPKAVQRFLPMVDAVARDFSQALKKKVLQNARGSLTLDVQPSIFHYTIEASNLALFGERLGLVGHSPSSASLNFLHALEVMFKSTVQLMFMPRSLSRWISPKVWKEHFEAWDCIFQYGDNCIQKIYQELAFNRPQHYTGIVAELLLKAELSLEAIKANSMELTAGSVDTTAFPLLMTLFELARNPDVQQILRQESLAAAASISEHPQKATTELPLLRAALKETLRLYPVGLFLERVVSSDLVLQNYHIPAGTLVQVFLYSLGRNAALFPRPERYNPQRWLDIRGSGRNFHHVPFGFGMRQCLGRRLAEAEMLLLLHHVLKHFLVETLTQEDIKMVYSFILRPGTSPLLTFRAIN
Description: Inhibition of human CYP11B2 expressed in HEK293A cells using deoxycorticosterone as substrate pretreated for 1 hr followed by substrate addition measured after 1 hr by HTRF assay

[2] = molecular target: T2, Cytochrome P450 11B2, mitochondrial (Mus musculus, UniProt P15539)
T2 sequence (P15539 whole entry): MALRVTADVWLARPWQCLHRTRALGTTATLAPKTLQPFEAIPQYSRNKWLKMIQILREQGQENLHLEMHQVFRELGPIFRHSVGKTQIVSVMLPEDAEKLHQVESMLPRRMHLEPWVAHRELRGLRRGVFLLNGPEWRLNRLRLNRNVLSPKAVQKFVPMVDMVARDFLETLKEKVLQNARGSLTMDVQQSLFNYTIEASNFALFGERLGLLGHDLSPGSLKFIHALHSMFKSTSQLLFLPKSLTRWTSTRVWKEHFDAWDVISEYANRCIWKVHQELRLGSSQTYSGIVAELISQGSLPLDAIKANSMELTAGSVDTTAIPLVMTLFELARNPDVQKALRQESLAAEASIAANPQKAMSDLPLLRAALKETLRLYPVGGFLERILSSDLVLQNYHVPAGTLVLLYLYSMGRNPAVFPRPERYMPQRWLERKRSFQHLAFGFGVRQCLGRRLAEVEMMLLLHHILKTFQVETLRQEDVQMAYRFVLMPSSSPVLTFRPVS
Description: Inhibition of mouse CYP11B2 expressed in HEK293 cells using deoxycorticosterone as substrate pretreated for 1 hr followed by substrate addition after 2 hrs by HTRF assay

[3] = molecular target: T3, Cytochrome P450 11B1, mitochondrial (Homo sapiens, UniProt P15538); experiment: Inhibition of human CYP11B1 expressed in HEK293A cells; type: ADME, cell-based, HEK293
T3 sequence (P15538 whole entry): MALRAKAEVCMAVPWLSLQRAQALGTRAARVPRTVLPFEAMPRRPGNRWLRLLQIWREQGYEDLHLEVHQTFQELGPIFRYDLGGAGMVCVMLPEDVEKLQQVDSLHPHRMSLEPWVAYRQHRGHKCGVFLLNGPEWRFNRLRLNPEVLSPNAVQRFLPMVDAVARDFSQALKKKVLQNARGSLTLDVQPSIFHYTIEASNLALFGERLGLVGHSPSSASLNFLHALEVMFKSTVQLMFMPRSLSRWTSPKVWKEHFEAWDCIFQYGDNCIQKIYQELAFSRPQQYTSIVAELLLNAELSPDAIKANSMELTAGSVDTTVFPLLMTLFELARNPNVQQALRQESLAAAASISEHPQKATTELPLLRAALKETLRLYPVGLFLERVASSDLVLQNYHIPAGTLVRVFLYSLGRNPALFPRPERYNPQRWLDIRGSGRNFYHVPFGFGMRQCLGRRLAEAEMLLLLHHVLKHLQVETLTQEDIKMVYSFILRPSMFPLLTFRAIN

[4] = Tmax in cynomolgus monkey at 3 mg/kg, po administered as single dose; type: ADME, organism-based, Macaca fascicularis; details: in vivo
[5] = Total AUC in cynomolgus monkey at 3 mg/kg, po administered as single dose; type: ADME, organism-based, Macaca fascicularis; set-up: dose 3 mg/kg, time AUCmax, route oral; details: in vivo
[6] = Plasma protein binding in mouse; type: ADME, cell-free; details: read-out: PPB (converted)
[7] = test system: Liver; experiment: Metabolic stability in human liver microsomes; type: ADME, microsome
[8] = molecular target: CYP2D6 (Homo sapiens, UniProt P10635); experiment: Inhibition of CYP2D6 (unknown origin) at 10 uM; type: ADME
[9] = Solubility of the compound at pH 6.8; type: physicochemical; details: buffer
[10] = molecular target: T4, CYP19 (aromatase) (Homo sapiens, UniProt P11511); experiment: Inhibition of CYP19 (unknown origin) at 1 uM
T4 sequence (P11511 whole entry): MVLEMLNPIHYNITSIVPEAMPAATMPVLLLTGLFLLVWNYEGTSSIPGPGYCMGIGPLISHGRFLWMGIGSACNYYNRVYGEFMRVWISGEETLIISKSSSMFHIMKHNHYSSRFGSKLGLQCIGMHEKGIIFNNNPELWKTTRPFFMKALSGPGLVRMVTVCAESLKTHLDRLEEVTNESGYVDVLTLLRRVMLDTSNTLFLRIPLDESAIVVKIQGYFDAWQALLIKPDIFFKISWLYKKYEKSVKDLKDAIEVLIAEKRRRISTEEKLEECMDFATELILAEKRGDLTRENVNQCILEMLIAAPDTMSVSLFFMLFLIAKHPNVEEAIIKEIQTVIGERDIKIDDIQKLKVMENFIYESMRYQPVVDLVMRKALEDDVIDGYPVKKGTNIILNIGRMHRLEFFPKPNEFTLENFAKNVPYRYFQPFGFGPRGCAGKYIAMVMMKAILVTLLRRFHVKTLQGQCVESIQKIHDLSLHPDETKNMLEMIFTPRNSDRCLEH

[11] = Cmax in cynomolgus monkey at 3 mg/kg, po administered as single dose; type: ADME, organism-based, Macaca fascicularis; set-up: dose 3 mg/kg, route oral; details: in vivo
[12] = molecular target: T5, CYP1A2 (Homo sapiens, UniProt P05177); experiment: Inhibition of CYP1A2 (unknown origin) at 10 uM; type: ADME
T5 sequence (P05177 whole entry): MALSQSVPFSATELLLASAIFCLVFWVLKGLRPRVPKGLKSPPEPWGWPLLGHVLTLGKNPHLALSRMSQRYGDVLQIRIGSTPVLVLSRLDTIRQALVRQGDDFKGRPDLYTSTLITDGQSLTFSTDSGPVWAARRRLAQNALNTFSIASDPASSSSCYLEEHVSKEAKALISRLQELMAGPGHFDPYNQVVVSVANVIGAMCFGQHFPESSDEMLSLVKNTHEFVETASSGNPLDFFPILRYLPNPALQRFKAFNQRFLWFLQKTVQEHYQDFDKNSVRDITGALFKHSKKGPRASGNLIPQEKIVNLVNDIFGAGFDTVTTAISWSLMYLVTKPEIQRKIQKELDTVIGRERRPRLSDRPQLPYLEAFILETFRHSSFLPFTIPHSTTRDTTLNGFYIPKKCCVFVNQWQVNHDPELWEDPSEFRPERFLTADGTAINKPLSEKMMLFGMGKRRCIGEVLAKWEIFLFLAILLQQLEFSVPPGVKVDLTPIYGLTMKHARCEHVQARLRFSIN

[13] = molecular target: CYP2C9 (Homo sapiens, UniProt P11712); experiment: Inhibition of CYP2C9 (unknown origin) at 10 uM; type: ADME
[14] = molecular target: CYP3A4 (Homo sapiens, UniProt P08684); experiment: Inhibition of CYP3A4 (unknown origin) at 10 uM
[15] = Half life in cynomolgus monkey at 3 mg/kg, po administered as single dose; type: ADME, organism-based, Macaca fascicularis; details: in vivo
[16] = Solubility of the compound at pH 1.2; type: physicochemical; details: buffer
[17] = Inhibition of monkey CYP11B2; set-up: species or system Macaca mulatta
[18] = molecular target: T6, Cytochrome P450 11B2, mitochondrial (Rattus norvegicus, UniProt P30099); experiment: Inhibition of rat CYP11B2
T6 sequence (P30099 whole entry): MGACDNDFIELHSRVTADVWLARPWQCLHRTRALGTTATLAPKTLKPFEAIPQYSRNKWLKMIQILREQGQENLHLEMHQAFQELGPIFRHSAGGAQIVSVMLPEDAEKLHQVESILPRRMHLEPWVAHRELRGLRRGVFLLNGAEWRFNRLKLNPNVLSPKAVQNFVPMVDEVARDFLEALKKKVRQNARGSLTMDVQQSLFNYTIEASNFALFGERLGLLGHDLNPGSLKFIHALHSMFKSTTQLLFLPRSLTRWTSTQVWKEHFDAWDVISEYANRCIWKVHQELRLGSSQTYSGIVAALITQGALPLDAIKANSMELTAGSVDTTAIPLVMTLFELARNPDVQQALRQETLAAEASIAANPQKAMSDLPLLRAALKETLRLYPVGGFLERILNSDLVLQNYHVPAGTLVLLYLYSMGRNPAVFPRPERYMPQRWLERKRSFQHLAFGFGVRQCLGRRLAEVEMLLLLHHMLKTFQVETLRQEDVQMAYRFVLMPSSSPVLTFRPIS

[19] = test system: Cynomolgus monkey; experiment: Decrease in plasma aldosterone level in furosemide-induced cynomolgus monkey at 3 mg/kg, po administered as single dose by radioimmunoassay; type: functional, organism-based; details: Macaca fascicularis

Chain of CYP3A4 (P08684 whole entry): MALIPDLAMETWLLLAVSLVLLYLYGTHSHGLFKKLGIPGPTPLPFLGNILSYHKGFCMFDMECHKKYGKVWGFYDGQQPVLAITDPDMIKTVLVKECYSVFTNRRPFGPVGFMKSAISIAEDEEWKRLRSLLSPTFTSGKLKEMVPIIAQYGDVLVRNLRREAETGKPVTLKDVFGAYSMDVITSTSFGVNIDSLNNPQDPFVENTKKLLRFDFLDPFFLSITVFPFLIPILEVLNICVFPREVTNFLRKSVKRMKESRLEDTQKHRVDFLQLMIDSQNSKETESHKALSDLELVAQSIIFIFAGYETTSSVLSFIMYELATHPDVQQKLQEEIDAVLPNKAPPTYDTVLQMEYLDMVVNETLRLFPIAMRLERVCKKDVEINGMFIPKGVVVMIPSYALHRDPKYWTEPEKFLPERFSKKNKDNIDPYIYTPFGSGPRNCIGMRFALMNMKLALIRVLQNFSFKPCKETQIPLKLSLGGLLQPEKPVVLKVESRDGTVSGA
Chain of CYP2D6 (P10635 whole entry): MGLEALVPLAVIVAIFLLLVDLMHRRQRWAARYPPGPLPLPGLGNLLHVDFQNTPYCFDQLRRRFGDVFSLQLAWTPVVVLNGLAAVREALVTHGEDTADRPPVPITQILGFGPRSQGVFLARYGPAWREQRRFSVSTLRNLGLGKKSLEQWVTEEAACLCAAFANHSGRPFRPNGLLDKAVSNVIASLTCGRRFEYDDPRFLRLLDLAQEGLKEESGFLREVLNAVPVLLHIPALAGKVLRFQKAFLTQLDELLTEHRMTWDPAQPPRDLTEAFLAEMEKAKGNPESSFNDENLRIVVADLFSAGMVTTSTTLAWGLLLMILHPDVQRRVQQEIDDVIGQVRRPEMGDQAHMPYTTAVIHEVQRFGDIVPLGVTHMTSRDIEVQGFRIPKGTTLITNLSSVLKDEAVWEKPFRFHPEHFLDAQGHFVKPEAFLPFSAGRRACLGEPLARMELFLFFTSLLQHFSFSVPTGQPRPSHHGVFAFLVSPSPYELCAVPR
Chain of CYP2C9 (P11712 whole entry): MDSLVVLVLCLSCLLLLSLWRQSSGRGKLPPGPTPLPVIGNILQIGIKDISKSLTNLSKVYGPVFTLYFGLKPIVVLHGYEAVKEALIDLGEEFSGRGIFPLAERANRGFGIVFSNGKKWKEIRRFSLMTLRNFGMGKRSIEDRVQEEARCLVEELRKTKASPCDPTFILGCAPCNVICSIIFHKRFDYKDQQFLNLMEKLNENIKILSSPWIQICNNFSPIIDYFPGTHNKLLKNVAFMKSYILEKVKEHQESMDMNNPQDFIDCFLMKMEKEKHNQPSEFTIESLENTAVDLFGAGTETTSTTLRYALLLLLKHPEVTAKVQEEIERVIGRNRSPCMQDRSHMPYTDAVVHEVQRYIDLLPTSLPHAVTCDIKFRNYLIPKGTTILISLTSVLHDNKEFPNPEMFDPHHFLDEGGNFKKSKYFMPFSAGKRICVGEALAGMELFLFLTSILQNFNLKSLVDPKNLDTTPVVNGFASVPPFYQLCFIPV

Row | Compound | IC50 [1] | IC50 [2] | IC50 [3] | also measured
1 | CS(=O)(=O)N1CCC(O)(c2cncnc2Nc2ccc(F)cc2)CC1 | 300 nM | 1380 nM | – | –
2 | CS(=O)(=O)N1CCC(C(O)c2cncnc2Nc2cccc3ccccc23)CC1 (racemic) | 8 nM | 2740 nM | 110 nM | –
3 | COc1ccc(Nc2ncncc2C(O)C2CCN(S(C)(=O)=O)CC2)cc1 (racemic) | 14 nM | > 10000 nM | – | –
4 | OC(c1ccccc1)c1cncnc1Nc1ccc(F)cc1 (racemic) | 30 nM | 440 nM | 93 nM | –
5 | CS(=O)(=O)N1CCC(C(O)c2cncnc2Nc2ccc(C#N)cc2)CC1 (racemic) | 2 nM | 1340 nM | 11 nM | –
6 | CS(=O)(=O)N1CCC(C(O)c2cncnc2Nc2cccc(F)c2)CC1 (racemic) | 5 nM | 1100 nM | 13 nM | –
7 | OC(c1cncnc1Nc1ccc(F)cc1)C1CCNCC1 (racemic) | 300 nM | 1310 nM | – | –
8 | CS(=O)(=O)N1CCC(C(O)c2cncnc2Nc2ccccc2)CC1 (racemic) | 15 nM | 1760 nM | 42 nM | –
9 | CS(=O)(=O)N1CCC(C(O)c2cncnc2Cc2ccccc2)CC1 (racemic) | 83 nM | – | – | –
10 | CS(=O)(=O)N1CCC(C(O)c2cncnc2Sc2ccc(F)cc2)CC1 (racemic) | 0.4 nM | 257 nM | 0.6 nM | –
11 | Cc1ccc(Nc2ncncc2C(O)C2CCN(S(C)(=O)=O)CC2)cc1 (racemic) | 8 nM | 1890 nM | 19 nM | –
12 | CCCC(O)c1cncnc1Nc1ccc(F)cc1 (racemic) | 75 nM | 911 nM | 181 nM | –
13 | CS(=O)(=O)N1CCC(C(O)(c2cncnc2Nc2ccc(F)cc2)C(F)(F)F)CC1 (racemic) [listing 2 of 2 here] | – | – | – | Activity [19]: Active

Second part, led by results:

Row | IC50 [1] | IC50 [2] | IC50 [3] | Compound | also measured
14 | 109 nM | 5100 nM | – | CS(=O)(=O)N1CCC(C(=O)c2cncnc2Nc2ccc(F)cc2)CC1 | –
15 | 144 nM | 1470 nM | – | CS(=O)(=O)N1CCC(C(O)c2cncnc2Nc2ccc(F)cc2)C1 (mixture of isomers) | –
16 | 2 nM | 102 nM | 6 nM | CC(O)(c1cncnc1Nc1ccc(F)cc1)C1CCN(S(C)(=O)=O)CC1 (racemic) | –
17 | 48 nM | 170 nM | 124 nM | CCCCC(O)(c1cncnc1Nc1ccc(F)cc1)C1CCN(S(C)(=O)=O)CC1 (racemic) | –
18 | 4 nM | 10 nM | 2 nM | CS(=O)(=O)N1CCC(C(O)(c2cncnc2Nc2ccc(F)cc2)C(F)(F)F)CC1 (racemic) [listing 1 of 2 here] | Tmax [4]: 2.67 h; AUC [5]: 3300 ng·h/mL; fraction unbound [6]: 0.185; Stability [7]: 100%; inhibition at 10 µM [8]: 5.8%; solubility [9]: 260 µg/mL (≈ 580 µM); inhibition at 1 µM [10]: 16%; Cmax [11]: 515 ng/mL; inhibition at 10 µM [12]: < 0%; inhibition at 10 µM [13]: 3.4%; inhibition at 10 µM [14]: 4.1%; half-life [15]: 2.31 h; solubility [16]: 860 µg/mL (≈ 1920 µM)
19 | 3 nM | 798 nM | 16 nM | CS(=O)(=O)N1CCC(C(O)c2cncnc2Nc2ccc(C(F)(F)F)cc2)CC1 (racemic) | –
20 | 5 nM | 21 nM | 13 nM | CC(C)C(O)(c1cncnc1Nc1ccc(F)cc1)C1CCN(S(C)(=O)=O)CC1 (racemic) | –
21 | 3 to 3.1 nM | 300 to 301 nM | 10 nM | CS(=O)(=O)N1CCC(C(O)c2cncnc2Nc2ccc(F)cc2)CC1 (racemic) | IC50 [17]: 2.7 nM; IC50 [18]: 300 nM
22 | 192 nM | 3130 nM | – | CS(=O)(=O)N1CCC(CC(O)c2cncnc2Nc2ccc(F)cc2)CC1 (racemic) | –
23 | 0.73 nM | 0.73 nM | 1.1 nM | CS(=O)(=O)N1CCC(C(O)(c2cncnc2Nc2ccc(F)cc2)C(F)(F)F)CC1 (single isomer, unassigned; isomer 1) | –
24 | > 100 nM | > 100 nM | > 300 nM | CS(=O)(=O)N1CCC(C(O)(c2cncnc2Nc2ccc(F)cc2)C(F)(F)F)CC1 (single isomer, unassigned; isomer 2) | –

Source: ChEMBL document CHEMBL4011612, “4-Anilino-pyrimidine, novel aldosterone synthase (CYP11B2) inhibitors bearing pyrimidine structures” (Bioorg Med Chem Lett, 2017)
